Our source for the TGI values is PubChem BioAssay (NCI).

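Compound exposure: 48 hours, 5 concentrations, 96-well plates. TGI marks complete inhibition of growth.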

Test systems include M19-MEL melanoma; MDA-MB-231 breast; MDA-N; RXF-631 renal; XF 498 CNS; NCI/ADR-RES ovarian; P388 leukemia; P388/ADR leukemia; SN12K1 renal; T-47D breast.
Common to all, as to assay: NCI tumour cell line growth inhibition, 48 h

For `O=C(CC1(O)C(=O)Nc2c(Cl)cc(Cl)cc21)c1ccc(Br)cc1Br` (stereo not drawn), the TGI in the test on M19-MEL melanoma amounted to 25.1 µM; in the test on MDA-MB-231 breast it was 41.3 µM; with MDA-N, 21.8 µM; in the test on RXF-631 renal, 9.25 µM; in the test with XF 498 CNS, 23.8 µM.

`CCOc1ccc(NC(=O)C(=O)CC(=O)c2c[n+](=O)c3cc(C)c(C)cc3n2[O-])cc1`: the TGI in the test with M19-MEL melanoma, in the test on RXF-631 renal and in the test on XF 498 CNS was above 100 µM throughout.

In the case of `C=C1C(=O)C23CC1CCC2C12CO[C@@H]4OCC(C)(CC[C@@H]1OC3=O)C42` (stereo partly drawn), the TGI stood at 19.6 µM in the test on M19-MEL melanoma, 47.8 µM in the test with RXF-631 renal and 3.41 µM in the test on XF 498 CNS.

As to `O=C1C2C(C(=O)N1OS(=O)(=O)c1ccccc1)N(Cc1ccccc1)C(=O)N2Cc1ccccc1` (stereo not drawn), the TGI in the test on M19-MEL melanoma, with RXF-631 renal and in the test with XF 498 CNS was above 100 µM throughout.

Take `O=CN/C=C/c1cc(O)ccc1O`: the TGI in the test with M19-MEL melanoma is 28.5 µM; in the test on NCI/ADR-RES ovarian, 42.1 µM; in the test with P388 leukemia, 5.2 µM; with P388/ADR leukemia, 4.14 µM; in the test with SN12K1 renal, 32.4 µM; in the test on XF 498 CNS it was 34.1 µM.

Turning to `COC1(OC)CCC2C1C1CCC(OC)(OC)C21` (stereo not drawn), the TGI in the test on M19-MEL melanoma, with RXF-631 renal and in the test on XF 498 CNS was above 50 µM each time.

As for `Cc1cc(C)nc(NS(=O)(=O)c2ccc(NC(=O)c3ccc(Cl)c4c(Nc5ccc(S(=O)(=O)Nc6nc(C)cc(C)n6)cc5)c5ccccc5nc34)cc2)n1`, the TGI in the test with M19-MEL melanoma is 8.28 µM; in the test on RXF-631 renal it was above 100 µM; in the test with XF 498 CNS it was above 100 µM.

`CCCCC(=O)OCC(=O)[C@]1(O)Cc2c(O)c3c(c(O)c2[C@@H](OC2CC(NC(=O)C(F)(F)F)C(O)C(C)O2)C1)C(=O)c1c(OC)cccc1C3=O` (stereo partly drawn): the TGI with M19-MEL melanoma is 1.9 µM; in the test with MDA-MB-231 breast, above 100 µM; in the test with MDA-N it was 5.02 µM; with RXF-631 renal it was 6.44 µM; with T-47D breast, 7.55 µM; in the test with XF 498 CNS, 0.97 µM.

Take `CN(C)CC[N+]1=Nc2cccc3cccc(c23)N1`: the TGI with M19-MEL melanoma, in the test on RXF-631 renal and in the test with XF 498 CNS was above 100 µM in each case.

Take `CC(C)C/C(CC(=O)CCC(=O)Nc1ccccc1[N+](=O)[O-])=N\NC(=O)c1cc2ccccc2cc1O`: the TGI in the test on M19-MEL melanoma was 65.1 µM; in the test with RXF-631 renal it was above 100 µM; in the test with XF 498 CNS it was above 100 µM.
